Laboratory results from patent publication US8183211B2, “Pharmaceutical compositions for inhibiting intestinal permeability” (University of Maryland, Baltimore, priority 2000, dated 2012).
Ends that are not written are not given here.

Legend:
rabbit ileum = test: Tissue resistance (Rt) of rabbit ileum mounted in Ussing chambers; assay type: cell-based
Procedure: Next, rabbit ileum mounted in Ussing chambers as described above, were exposed to 100 μg of FZI/0 (SEQ ID NO:15), 100 μg of FZI/1 (SEQ ID NO:29), 1.0 μg of 6×His-ZOT (obtained as described in Example 1 of U.S. patent application Ser. No. 09/127,815, filed Aug. 3, 1998), 1.0 μg of zonulini (obtained as described in Example 3 of U.S. patent application Ser. No. 09/127,815, filed Aug. 3, 1998), or 1.0 μg of zonulinh (obtained as described in Example 3of U.S. patent application Ser. No. 09/127,815, filed Aug. 3, 1998), alone; or pre-exposed for 20 min to 100 μg of FZI/0 or FZI/1, at which time 1.0 μg of 6×His-ZOT, 1.0 μg of zonulini, or 1.0 μg of zonulinh, was added. ΔRt was then calculated as described above.

BB/Wor rats = test: BB/Wor diabetic rat model, progression to diabetes; assay type: in vivo; conditions: 10 μg/ml in drinking water
Procedure: Both groups were maintained on a standard diet of rat chow (Harlan Teklab Diet #7012). All food and water were previously autoclaved. Each day, daily water intake was measured and 100 ml of fresh water was given. The treated group received 10 μg/ml of the zonulin peptide antagonist (SEQ ID NO:15) supplemented in the drinking water. The rats were housed in hepa-filter cages.
Diabetes in the rats was diagnosed as follows: The rats were weighed twice a week. Blood glucose was determined weekly using the OneTouch® glucose monitoring system (Johnson & Johnson). Each week, reagent strips for urinalysis were used to monitor glucose (Diastix®) and ketones (Ketositx®) (Bayer). Rats with a blood glucose>250 mg/dl were fasted overnight, and blood glucose levels>200 mg/dl were considered diabetic.
Following clinical presentation of diabetes, the rats were sacrificed as follows: the rats were anesthesized using ketamine anesthesia and a midline incision was made allowing access to the heart. An 18 G needle was placed into the heart and death occurred by exsanguinations. Then, zonulin assays were conducted as described above. […] According to Biomedical Research Models, Inc., 80% of diabetes prone rats present with diabetes by age 80 days.

rabbit ileal mucosa = conditions: cited from earlier work

## GGVLVQPG [FZI/0, synthetic octapeptide corresponding to amino acid residues 8-15 of human fetal zonulini]
Rabbit ileum; 100 μg peptide alone, rabbit ileum
  change in Rt as compared to the negative control: 0.5%
Rabbit ileum; pre-treatment for 20 min with 100 μg peptide, then 1.0 μg 6×His-ZOT
  decrease of the effect of ZOT on Rt: 75%
Rabbit ileum; pre-treatment for 20 min with 100 μg peptide, then 1.0 μg zonulinh
  decrease of the effect of zonulinh on Rt: 100%
Rabbit ileum; pre-treatment for 20 min with 100 μg peptide, then 1.0 μg zonulini
  decrease of the effect of zonulini on Rt: 97%
BB/Wor rats; endpoint age 80 days
  treated rats that did not develop diabetes: 60%
BB/Wor rats; n=5, control rats 80%
  rats that developed diabetes by age 80 days: 40%

## ZOT: zonula occludens toxin elaborated by V. cholerae
Rabbit ileal mucosa
  Na+-glucose coupled active transport: does not affect
  cytotoxicity: not cytotoxic
  transepithelial resistance: fails to completely abolish

## FZI/1: second synthetic peptide: Gly in position 8, Val in position 12, Gln in position 13 changed to Val, Gly, Arg (VGVLGRPG; tight junction antagonist peptide) [reference compound]
Rabbit ileum; pre-exposure for 20 min to 100 μg peptide
  inhibitory effect on ZOT, zonulini and zonulinh action on Rt: completely ablated
